Key:
Type in all cases: cell-based
[1] = test system: NIH/3T3; assay: MTT assay on non-malignant fibroblasts; details: Mus musculus, NIH3T3, 72 h, no IC50 calculated when less than 50% inhibition at 10 μM
Description: (§1) The antiproliferative activities of the prepared diterpene analogues were studied using an MTT assay on a panel of human adherent cancer lines, including cells from cervical (HeLa), breast (MDA-MB-231, MCF-7), and ovary cancers (A2780), as given in Figure 1 and Table S1 in the Supplementary Materials. A non-malignant fibroblast cell line (NIH/3T3) was also utilised to obtain preliminary information on the cancer selectivity of the tested compounds. Based on the obtained activities, some conclusions could be drawn regarding the structure–activity relationships (SARs). Since neither the key intermediate benzyl ester of hydroxylaldehyde 4 nor the N-Boc protected aminoalcohols (6, 7, 11, 12) or even compound 8 with a free carboxylic function exerted remarkable antiproliferative effects (except for 12 against A2780 ovarian cancer cells), we could conclude that the simultaneous presence of the ester function and the basic secondary amino function were essential for the inhibition of cell growth. […] All active molecules inhibited considerably the proliferation of non-malignant cells, which meant that most currently presented agents were not optimal for further investigations of their anticancer properties.
(§2) The growth-inhibitory effects of the isosteviol-based 1,3-aminoalcohols were determined by a standard MTT (3-(4,5-dimethylthiazol-2-yl)-2,5-diphenyltetrazolium bromide) assay on a panel containing five cell lines, including Hela (cervical cancer), MDA-MB-231 and MCF-7 (breast cancers), and A2780 ovarian cancer cells. All cell lines were purchased from the European Collection of Cell Cultures (Salisbury, UK). The cells were maintained in a minimal essential medium supplemented with 10% foetal bovine serum, 1% non-essential amino acids, and 1% penicillin–streptomycin at 37 °C in a humidified atmosphere containing 5% CO2. All media and supplements were obtained from Lonza Group Ltd. (Basel, Switzerland). Cancer cells were seeded into 96-well plates (5000 cells/well); after overnight incubation, the test compound was added in two different concentrations (10 µM and 30 µM) and incubated for another 72 h under cell-culturing conditions. In the next step, 20 μL of 5 mg/mL of an MTT solution was added to each well and incubated for a further 4 h. The medium was removed and the precipitated formazan crystals were dissolved in DMSO after 60 min of shaking at 37 °C. As a final step, the absorbance was measured at 545 nm by using a microplate reader. Untreated cells were included as controls. […] Two independent experiments were performed with five wells for each condition. Calculations were performed using the GraphPad Prism 10.0 software (GraphPad Software Inc., San Diego, CA, USA).

[2] = test system: MDA-MB-231; assay: MTT antiproliferative assay, MDA-MB-231; details: Homo sapiens, 72 h, no IC50 calculated when less than 50% inhibition at 10 μM
Description: as §1, §2

[3] = test system: A2780; assay: MTT antiproliferative assay, A2780; details: Homo sapiens, 72 h, no IC50 calculated when less than 50% inhibition at 10 μM
Description: as §1, §2

[4] = test system: MCF-7; assay: MTT antiproliferative assay, MCF-7; details: Homo sapiens, MCF7, 72 h, no IC50 calculated when less than 50% inhibition at 10 μM
Description: as §1, §2

[5] = test system: HeLa; assay: MTT antiproliferative assay, HeLa; details: Homo sapiens, 72 h, no IC50 calculated when less than 50% inhibition at 10 μM
Description: as §1, §2

| Compound | IC50 [1] | IC50 [2] | IC50 [3] | IC50 [4] | IC50 [5] |
| --- | --- | --- | --- | --- | --- |
| C[C@]12CCC3[C@](CC[C@@H]4[C@](C)(C(=O)OCc5ccccc5)CCC[C@@]34C)(C1)[C@H](C=O)[C@H]2O (stereo partly drawn) [Compound 4, (4R,4aS,6aS,7S,8R,9S,11bS)-Benzyl 7-formyl-8-hydroxy-4,9,11b-trimethyltetradecahydro-6a,9-methanocyclohepta[a]naphthalene-4-carboxylate] | > 10 µM | > 10 µM | > 10 µM | > 10 µM | > 10 µM |
| C[C@]12CCC3[C@](CC[C@@H]4[C@](C)(C(=O)OCc5ccccc5)CCC[C@@]34C)(C1)[C@H](CNCc1ccc(F)cc1)[C@H]2O (stereo partly drawn) [Compound 5, (4R,4aS,6aS,7R,8R,9S,11bS)-Benzyl 7-(((4-fluorobenzyl)amino)methyl)-8-hydroxy-4,9,11b-trimethyltetradecahydro-6a,9-methanocyclohepta[a]naphthalene-4-carboxylate] | 4.27 µM | 5.98 µM | 4.57 µM | 4.29 µM | 4.17 µM |
| CC(C)(C)OC(=O)N(Cc1ccc(F)cc1)C[C@@H]1[C@@H](O)[C@@]2(C)CCC3[C@]1(CC[C@@H]1[C@](C)(C(=O)OCc4ccccc4)CCC[C@@]31C)C2 (stereo partly drawn) [Compound 6, (4R,4aS,6aS,7R,8R,9S,11bS)-Benzyl 7-(((tert-butoxycarbonyl)(4-fluorobenzyl)amino)methyl)-8-hydroxy-4,9,11b-trimethyltetradecahydro-6a,9-methanocyclohepta[a]naphthalene-4-carboxylate] | > 10 µM | > 10 µM | > 10 µM | > 10 µM | > 10 µM |
| CC(C)(C)OC(=O)N(Cc1ccc(F)cc1)C[C@@H]1[C@@H](O)[C@@]2(C)CCC3[C@]1(CC[C@@H]1[C@](C)(C(=O)O)CCC[C@@]31C)C2 (stereo partly drawn) [Compound 7, (4R,4aS,6aS,7R,8R,9S,11bS)-7-(((tert-butoxycarbonyl)(4-fluorobenzyl)amino)methyl)-8-hydroxy-4,9,11b-trimethyltetradecahydro-6a,9-methanocyclohepta[a]naphthalene-4-carboxylic Acid] | > 10 µM | > 10 µM | > 10 µM | > 10 µM | > 10 µM |
| C=CC(=O)OCCCCOC(=O)[C@]1(C)CCC[C@@]2(C)C3CC[C@@]4(C)C[C@]3(CC[C@H]12)[C@H](CN(Cc1ccc(F)cc1)C(=O)OC(C)(C)C)[C@H]4O (stereo partly drawn) [Compound 11, (4R,4aS,6aS,7R,8R,9S,11bS)-4-(Acryloyloxy)butyl 7-(((tert-butoxycarbonyl)(4-fluorobenzyl)amino)methyl)-8-hydroxy-4,9,11b-trimethyltetradecahydro-6a,9-methanocyclohepta[a]naphthalene-4-carboxylate] | > 10 µM | > 10 µM | > 10 µM | > 10 µM | > 10 µM |
| C=CC(=O)OCCC(=O)OCCCCOC(=O)[C@]1(C)CCC[C@@]2(C)C3CC[C@@]4(C)C[C@]3(CC[C@H]12)[C@H](CN(Cc1ccc(F)cc1)C(=O)OC(C)(C)C)[C@H]4O (stereo partly drawn) [Compound 12, (4R,4aS,6aS,7R,8R,9S,11bS)-4-((3-(Acryloyloxy)propanoyl)oxy)butyl 7-(((tert-butoxycarbonyl)(4-fluorobenzyl)amino)methyl)-8-hydroxy-4,9,11b-trimethyltetradecahydro-6a,9-methanocyclohepta[a]naphthalene-4-carboxylate] | > 10 µM | > 10 µM | 4.78 µM | > 10 µM | > 10 µM |
| C[C@@H](NC[C@@H]1[C@@H](O)[C@@]2(C)CCC3[C@]1(CC[C@@H]1[C@](C)(C(=O)OCc4ccccc4)CCC[C@@]31C)C2)c1ccc(F)cc1 (stereo partly drawn) [Compound 15, (4R,4aS,6aS,7R,8R,9S,11bS)-Benzyl 7-((((R)-1-(4-fluorophenyl)ethyl)amino)methyl)-8-hydroxy-4,9,11b-trimethyltetradecahydro-6a,9-methanocyclohepta[a]naphthalene-4-carboxylate] | 4.8 µM | 4.28 µM | 3.91 µM | 4.2 µM | 4.18 µM |

Reference: publication PMC10893060, “Synthesis and Study of the Structure–Activity Relationship of Antiproliferative N-Substituted Isosteviol-Based 1,3-Aminoalcohols” (Pharmaceuticals, 2024)
